# Experimental data reported in US6531604B2, “Benzothiepine derivatives, their production and use” (Takeda Chemical Industries, Ltd., priority 1998, dated 2003).
# System: interstitial cells prepared from the femur bone marrow of a normal rat
# Experiment: Osteogenesis promoting effect: alkaline phosphatase activity in cultured rat bone marrow interstitial cells
# Assay type: cell-based
# Details: test compound 10^−5 M, added from 2nd day of culture, cultured additional 5 days; mean ± S.E. (n = 4); control 0.150 ± 0.009; ** p < 0.01 vs control
# Experimental: Osteogenesis promoting effect:
# Using the interstitial cells prepared from the femur bone marrow of a normal rat, an alkaline phosphatase activity was measured as an index of osteogenesis. Briefly, according to the method of Maniatopoulos et al. [Cell Tissue Research, volume 254, P.317 (1988)], the interstitial cells were prepared from the femur bone of a Sprague-Dawley male rat, 7 weeks of age, and cultured in an α-MEM (minimum essential medium) solution containing dexamethasone (10^−7M) and β-glycerophosphoric acid (10^−2M) in order to generate calcified bony tissue. One week later, the confluent primary cells were treated with 0.25% trypsin-0.2% EDTA solution, recovered, and subcultured on a culture plate at a cell density of […], (culture day 0). From the 2nd day of the culture, a test compound (10^−5 M) was added to the above culture solution, and cultured for additional 5 days. The cells were washed with a phosphate buffer, and after addition of 0.2% Nonidet P-40, they were homogenized and centrifuged at 3,000 rpm for 10 minutes. The supernatant was measured for an alkaline phosphatase activity according to the method of Lowry et al. [Journal of Biological Chemistry, volume 207, P.19 (1954)]. […] Statistical analysis was performed by means of the Student's t-test.
row,Compound,Alkaline phosphatase activity (A405)
1,"C[C@@H]1S[C@@H](C(=O)Nc2ccc(CC3SC(=O)NC3=O)cc2)Cc2cc3c(cc2C1=O)OCO3 (stereo partly drawn) [Example no. 1, (2R,4S)-N-[4-(2,4-Dioxothiazolidin-5-yl-methyl)phenyl]-1,2,4,5-tetrahydro-7,8-methylenedioxy-4-methyl-5-oxo-3-benzothiepine-2-carboxamide]",0.489 ± 0.050** A405
2,"C[C@@H]1S[C@@H](C(=O)Nc2ccc(CN3CCOCC3)cc2)Cc2cc3c(cc2C1=O)OCO3 [Example no. 4, (2R,4S)-N-[4-(4-Morpholinylmethyl)phenyl]-1,2,4,5-tetrahydro-7,8-methylenedioxy-4-methyl-5-oxo-3-benzothiepine-2-carboxamide]",0.394 ± 0.036** A405
3,"C[C@@H]1S[C@@H](C(=O)Nc2ccc(CC3OC(=O)NC3=O)cc2)Cc2cc3c(cc2C1=O)OCO3 (stereo partly drawn) [Example no. 10, (2R,4S)-N-[4-(2,4-Dioxo-oxazolidin-5-yl-methyl)phenyl]-1,2,4,5-tetrahydro-7,8-methylenedioxy-4-methyl-5-oxo-3-benzothiepine-2-carboxamide]",0.535 ± 0.069** A405
4,"C[C@@H]1S[C@@H](C(=O)Nc2ccc(Cn3oc(=O)[nH]c3=O)cc2)Cc2cc3c(cc2C1=O)OCO3 [Example no. 11, (2R,4S)-N-[4-(3,5-Dioxo-1,2,4-oxadiazolidin-2-ylmethyl)phenyl]-1,2,4,5-tetrahydro-7,8-methylenedioxy-4-methyl-5-oxo-3-benzothiepine-2-carboxamide]",0.399 ± 0.069** A405
